Laboratory results published in patent US20130261178A1, “PHENOXYPROPANOL DERIVATIVES AND THEIR USE IN TREATING CARDIAC AND CARDIOVASCULAR DISEASES” (priority 2010, published 2013).

Columns and labels:
[1] = molecular target: T1, beta1-adrenoceptor (Homo sapiens, UniProt P08588); assay: 3H-CGP12177 whole-cell binding, CHO cells expressing human beta1-adrenoceptor; set-up: expressed in transfected cells; host or cells: CHO cells; settings: 3H-CGP 12177 whole cell binding, log KD, mean ± s.e.mean, read-out: Beta 1 Log KD (converted)
From the text: (§1) The selectivity of a ligand is given by the ratio of beta-1 to beta-2 KD.
Target sequence in this assay (P08588 whole entry): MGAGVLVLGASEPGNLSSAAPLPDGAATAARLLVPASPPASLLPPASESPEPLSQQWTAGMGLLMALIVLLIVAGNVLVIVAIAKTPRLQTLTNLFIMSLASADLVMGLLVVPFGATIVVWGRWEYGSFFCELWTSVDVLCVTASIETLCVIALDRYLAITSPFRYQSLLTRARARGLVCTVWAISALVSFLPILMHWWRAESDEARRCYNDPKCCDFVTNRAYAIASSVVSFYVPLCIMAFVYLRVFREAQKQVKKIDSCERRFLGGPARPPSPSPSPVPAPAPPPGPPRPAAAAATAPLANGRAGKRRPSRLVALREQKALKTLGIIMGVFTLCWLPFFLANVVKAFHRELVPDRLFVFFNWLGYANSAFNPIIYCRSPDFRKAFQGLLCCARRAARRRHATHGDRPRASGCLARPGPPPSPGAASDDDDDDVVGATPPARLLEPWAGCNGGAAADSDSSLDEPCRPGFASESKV

[2] = system: conscious, freely-moving rats; assay: regional haemodynamics in conscious, freely-moving rats (responses to salbutamol and isoprenaline); type: in vivo, rat; settings: atropine-treated rats
From the text: Preliminary assessment of the action of one of the compounds of the invention was undertaken using an in vivo model for monitoring regional haemodynamics in conscious, freely-moving rats (Gardiner & Bennett, Am J Physiol. 1988 October; 255(4 Pt 2):H813-24). This model has the distinct advantage of enabling measurement of regional blood flow in addition to blood pressure in the fully conscious state.

[3] = molecular target: T2, human beta2-adrenoceptor (Homo sapiens, UniProt P07550); assay: 3H-CGP12177 whole-cell binding, CHO cells expressing human beta2-adrenoceptor; settings: 3H-CGP 12177 whole cell binding, log KD, mean ± s.e.mean, read-out: Beta 2 Log KD (converted)
T2 construct: expressed in transfected cells; host or cells: CHO cells
From the text: as §1

[4] = molecular target: T3, human beta3-adrenoceptor (Homo sapiens, UniProt P13945); assay: 3H-CGP12177 whole-cell binding, CHO cells expressing human beta3-adrenoceptor; settings: 3H-CGP 12177 whole cell binding, log KD, mean ± s.e.mean, read-out: Beta 3 Log KD (converted)
T3 construct: expressed in transfected cells; host or cells: CHO cells

[5] = molecular target: T1, beta1-adrenoceptor; settings: background statement; cited from earlier work
Target sequence in this assay (P08588 whole entry, species assumed): as the sequence (P08588 whole entry) above

T3 sequence (P13945 whole entry): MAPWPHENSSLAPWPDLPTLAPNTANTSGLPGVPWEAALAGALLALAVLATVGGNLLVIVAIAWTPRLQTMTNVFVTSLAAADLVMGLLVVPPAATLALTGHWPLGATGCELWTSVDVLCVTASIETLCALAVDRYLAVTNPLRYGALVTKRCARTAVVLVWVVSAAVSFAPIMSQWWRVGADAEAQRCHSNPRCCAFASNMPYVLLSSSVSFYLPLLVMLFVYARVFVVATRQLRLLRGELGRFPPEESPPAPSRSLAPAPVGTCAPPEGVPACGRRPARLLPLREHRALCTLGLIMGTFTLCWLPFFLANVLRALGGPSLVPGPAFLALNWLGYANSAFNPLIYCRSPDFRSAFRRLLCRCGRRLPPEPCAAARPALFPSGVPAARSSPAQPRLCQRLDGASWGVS
T2 sequence (P07550 whole entry): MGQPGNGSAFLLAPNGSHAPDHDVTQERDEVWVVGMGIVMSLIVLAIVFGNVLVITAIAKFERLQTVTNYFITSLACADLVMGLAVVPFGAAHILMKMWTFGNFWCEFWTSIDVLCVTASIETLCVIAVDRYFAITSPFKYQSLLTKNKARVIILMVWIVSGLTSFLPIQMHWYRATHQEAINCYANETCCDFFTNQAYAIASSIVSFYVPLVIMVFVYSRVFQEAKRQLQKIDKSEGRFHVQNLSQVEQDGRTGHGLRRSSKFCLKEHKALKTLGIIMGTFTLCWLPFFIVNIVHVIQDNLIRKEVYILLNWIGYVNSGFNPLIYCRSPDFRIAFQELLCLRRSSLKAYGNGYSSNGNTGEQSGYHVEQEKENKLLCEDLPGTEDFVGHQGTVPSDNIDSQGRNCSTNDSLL

Compound	Kd [1]	Kd [3]	Kd [4]	melting point	beta1-adrenoceptor selectivity in a conscious rat cardiovascular model ([2]; 10 mg/kg i.v.)	reflex heart rate response to salbutamol ([2]; n=4, after 46a 10 mg/kg i.v., before +55±14)	isoprenaline-induced tachycardia ([2]; n=4, after 46a 10 mg/kg i.v., before +74±12)	increase in hindquarters vascular conductance (salbutamol) ([2]; n=4, after 46a 10 mg/kg i.v., before +106±20)	increase in hindquarters vascular conductance (isoprenaline) ([2]; n=4, after 46a 10 mg/kg i.v., before +126±20)	hypotension (salbutamol) ([2]; n=4, after 46a 10 mg/kg i.v., before −11±1)	hypotension (isoprenaline) ([2]; n=4, after 46a 10 mg/kg i.v., before −19±3)	β1-selectivity [5]
O=C(NCCNCC(O)COc1ccc(OCCOCC2CC2)cc1)Nc1ccc(O)cc1 (stereo not shown) [46a]	30.2 nM	> 100000 nM	24500 nM	–	highly beta1-adrenoceptor selective	+7±4 beats/min	+11±4 beats/min	+98±15%	+129±19%	−11±3 mmHg	−18±2 mmHg	–
CCOCCOc1ccc(OC[C@@H](O)CNCCc2ccc(OC)c(OC)c2)cc1 [D-140S]	–	–	–	–	–	–	–	–	–	–	–	4.400 fold
OC(CNCCOc1ccccc1)COc1ccc(OCCOC2CCCC2)cc1 (stereo not shown) [compound 48, 1-(2-Phenoxyethylamino)-3-(4-(2-(cyclopentyloxy)ethoxy)phenoxy)propan-2-ol]	34.7 nM	912 nM	4470 nM	155 to 157 °C	–	–	–	–	–	–	–	–

Continued, in another order:

Kd [1]	Kd [3]	Kd [4]	melting point	Compound	beta1-adrenoceptor selectivity in a conscious rat cardiovascular model ([2]; 10 mg/kg i.v.)	reflex heart rate response to salbutamol ([2]; n=4, after 46a 10 mg/kg i.v., before +55±14)	isoprenaline-induced tachycardia ([2]; n=4, after 46a 10 mg/kg i.v., before +74±12)	increase in hindquarters vascular conductance (salbutamol) ([2]; n=4, after 46a 10 mg/kg i.v., before +106±20)	increase in hindquarters vascular conductance (isoprenaline) ([2]; n=4, after 46a 10 mg/kg i.v., before +126±20)	hypotension (salbutamol) ([2]; n=4, after 46a 10 mg/kg i.v., before −11±1)	hypotension (isoprenaline) ([2]; n=4, after 46a 10 mg/kg i.v., before −19±3)	β1-selectivity [5]
9.55 nM	1320 nM	8910 nM	113 to 115 °C	O=C(NCCNCC(O)COc1ccc(OCCOC2CCCC2)cc1)Nc1ccc(F)c(F)c1 (stereo not shown) [54a, 1-(2-(3-(4-(2-(Cyclopentyloxy)ethoxy)phenoxy)-2-hydroxypropylamino)ethyl)-3-(3,4-difluorophenyl)urea]	–	–	–	–	–	–	–	–
204 nM	1740 nM	3090 nM	75 to 76 °C	O=C(NCCNCC(O)COc1ccc(OCCOC2CCCC2)cc1)c1ccccc1F (stereo not shown) [54g]	–	–	–	–	–	–	–	–
74.1 nM	550 nM	1120 nM	85 to 86 °C	O=C(NCCNCC(O)COc1ccc(OCCOC2CCCC2)cc1)c1cccc(F)c1 (stereo not shown) [54h]	–	–	–	–	–	–	–	–
27.5 nM	363 nM	2040 nM	99 to 100 °C	O=C(NCCNCC(O)COc1ccc(OCCOC2CCCC2)cc1)c1ccc(F)cc1 (stereo not shown) [54i]	–	–	–	–	–	–	–	–
